*1 amine or outer side, *2 acyl side, *3 side chain or, on linkers, in order; H or OH if unused. Where a SMILES comes first, the peptide text is derived from it. Bridges are numbered along the chain shown (N, C = ends). The star is where a group is joined. C20 diacid = O=C(O)CCCCCCCCCCCCCCCCCCC(=O)*; γGlu = O=C(O)[C@H](CCC(=O)[*:2])N[*:1]; AEEA = NCCOCCOCC(=O)O
target: T1, Amylin 3(a) receptor (human calcitonin receptor (CTa) and RAMP-3) (Homo sapiens, UniProt O60896+P30988); assay: Luciferase assay (III), BHK Amylin 3(a)//CRE-luc cells; type: cell-based; conditions: BHK cells with Amylin 3(a) receptor and CRE luciferase reporter, 4 hours incubation; read-out: Potency Luciferase
T1 construct: expressed in transfected cells; host or cells: BHK570 cells, stably transfected with a CRE-luciferase reporter
T1 sequence (O60896 24-148): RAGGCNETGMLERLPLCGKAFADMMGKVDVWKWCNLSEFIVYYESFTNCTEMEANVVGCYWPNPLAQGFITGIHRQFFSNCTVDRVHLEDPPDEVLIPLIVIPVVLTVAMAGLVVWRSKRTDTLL
T1 sequence (P30988 25-474): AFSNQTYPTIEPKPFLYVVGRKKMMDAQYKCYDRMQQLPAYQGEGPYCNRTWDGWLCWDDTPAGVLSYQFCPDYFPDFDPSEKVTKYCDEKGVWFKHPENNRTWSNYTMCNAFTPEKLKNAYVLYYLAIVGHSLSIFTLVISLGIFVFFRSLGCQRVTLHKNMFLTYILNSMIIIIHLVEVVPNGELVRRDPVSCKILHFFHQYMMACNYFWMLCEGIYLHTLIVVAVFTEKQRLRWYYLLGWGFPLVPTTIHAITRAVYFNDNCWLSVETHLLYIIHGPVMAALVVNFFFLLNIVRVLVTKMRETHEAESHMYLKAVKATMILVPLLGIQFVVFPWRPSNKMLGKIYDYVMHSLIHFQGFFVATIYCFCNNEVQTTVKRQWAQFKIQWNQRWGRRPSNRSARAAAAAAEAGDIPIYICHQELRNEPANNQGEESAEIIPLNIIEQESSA
In short: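 BHK570 cells stably expressing CTa, RAMP-3 and a CRE-luciferase reporter, seeded at about 20,000 cells/well and grown overnight. Cells were exposed to standard or sample for 4 h at 37° C in phenol red-free DMEM with 10% FBS and 10 mM Hepes, pH 7,4. Luminescence was read after 30 min LucLite at room temperature.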

Row | SMILES | EC50 [nM]
1 | CC[C@H](C)[C@H](NC(=O)[C@@H]1CCCN1C(=O)CNC(=O)[C@H](Cc1ccccc1)NC(=O)[C@H](CC(N)=O)NC(=O)[C@H](CC(N)=O)NC(=O)[C@H](CO)NC(=O)[C@H](CO)NC(=O)[C@H](Cc1c[nH]cn1)NC(=O)[C@H](CCCNC(=N)N)NC(=O)[C@H](CC(C)C)NC(=O)[C@H](Cc1ccccc1)NC(=O)[C@H](CC(N)=O)NC(=O)[C@H](C)NC(=O)[C@H](CC(C)C)NC(=O)[C@H](CCCNC(=N)N)NC(=O)[C@H](CCC(N)=O)NC(=O)[C@@H](NC(=O)[C@H](C)NC(=O)[C@@H]1CSSC[C@H](NC(=O)CC[C@H](NC(=O)CCCCCCCCCCCCCCCCCCC(=O)O)C(=O)O)C(=O)N[C@@H](CC(N)=O)C(=O)N[C@@H]([C@@H](C)O)C(=O)N[C@@H](C)C(=O)N[C@@H]([C@@H](C)O)C(=O)N1)[C@@H](C)O)C(=O)N[C@@H](CC(C)C)C(=O)N1CCC[C@H]1C(=O)N1CCC[C@H]1C(=O)N[C@H](C(=O)N[C@@H](CC(N)=O)C(=O)N[C@H](C(=O)NCC(=O)N[C@@H](CO)C(=O)N[C@@H](CC(N)=O)C(=O)N[C@H](C(=O)N[C@@H](Cc1ccc(O)cc1)C(N)=O)[C@@H](C)O)C(C)C)[C@@H](C)O [Example 14, N-alpha-[(S)-4-Carboxy-4-(19-carboxynonadecanoylamino)butyryl]-[Arg17]-pramlintide (2-37)] ({C20 diacid-γGlu}-CNTATCATQRLANFLRHSSNNFGPILPPTNVGSNTY-NH2; disulfide 1-6) | 0.2
2 | CC[C@H](C)[C@H](NC(=O)[C@@H]1CCCN1C(=O)CNC(=O)[C@H](Cc1ccccc1)NC(=O)[C@H](CC(N)=O)NC(=O)[C@H](CC(N)=O)NC(=O)[C@H](CO)NC(=O)[C@H](CO)NC(=O)[C@H](Cc1c[nH]cn1)NC(=O)[C@H](Cc1c[nH]cn1)NC(=O)[C@H](CC(C)C)NC(=O)[C@H](Cc1ccccc1)NC(=O)[C@H](CC(N)=O)NC(=O)[C@H](C)NC(=O)[C@H](CC(C)C)NC(=O)[C@H](CCCNC(=N)N)NC(=O)[C@H](CCC(N)=O)NC(=O)[C@@H](NC(=O)[C@H](C)NC(=O)[C@@H]1CSSC[C@H](NC(=O)[C@H](CCC(=O)O)NC(=O)CC[C@H](NC(=O)CCCCCCCCCCCCCCCCCCC(=O)O)C(=O)O)C(=O)N[C@@H](CC(N)=O)C(=O)N[C@@H]([C@@H](C)O)C(=O)N[C@@H](C)C(=O)N[C@@H]([C@@H](C)O)C(=O)N1)[C@@H](C)O)C(=O)N[C@@H](CC(C)C)C(=O)N1CCC[C@H]1C(=O)N1CCC[C@H]1C(=O)N[C@H](C(=O)N[C@@H](CC(N)=O)C(=O)N[C@H](C(=O)NCC(=O)N[C@@H](CO)C(=O)N[C@@H](CC(N)=O)C(=O)N[C@H](C(=O)N[C@@H](Cc1ccc(O)cc1)C(N)=O)[C@@H](C)O)C(C)C)[C@@H](C)O [Example 51, N-alpha-[(S)-4-Carboxy-4-(19-carboxynonadecanoylamino)butyryl]-[Glu 1,His17]-pramlintide] ({C20 diacid-γGlu}-ECNTATCATQRLANFLHHSSNNFGPILPPTNVGSNTY-NH2; disulfide 2-7) | 0.2
3 | CC[C@H](C)[C@H](NC(=O)[C@@H]1CCCN1C(=O)CNC(=O)[C@H](Cc1ccccc1)NC(=O)[C@H](CC(N)=O)NC(=O)[C@H](CC(N)=O)NC(=O)[C@H](CO)NC(=O)[C@H](CO)NC(=O)[C@H](Cc1c[nH]cn1)NC(=O)[C@@H]1CCCN1C(=O)[C@H](CC(C)C)NC(=O)[C@H](Cc1ccccc1)NC(=O)[C@H](CC(N)=O)NC(=O)[C@H](C)NC(=O)[C@H](CC(C)C)NC(=O)[C@H](CCCNC(=N)N)NC(=O)[C@H](CCC(N)=O)NC(=O)[C@@H](NC(=O)[C@H](C)NC(=O)[C@@H]1CSSC[C@H](NC(=O)CC[C@H](NC(=O)CCCCCCCCCCCCCCCCCCC(=O)O)C(=O)O)C(=O)N[C@@H](CC(N)=O)C(=O)N[C@@H]([C@@H](C)O)C(=O)N[C@@H](C)C(=O)N[C@@H]([C@@H](C)O)C(=O)N1)[C@@H](C)O)C(=O)N[C@@H](CC(C)C)C(=O)N1CCC[C@H]1C(=O)N1CCC[C@H]1C(=O)N[C@H](C(=O)N[C@@H](CC(N)=O)C(=O)N[C@H](C(=O)NCC(=O)N[C@@H](CO)C(=O)N[C@@H](CC(N)=O)C(=O)N[C@H](C(=O)N[C@@H](Cc1ccc(O)cc1)C(N)=O)[C@@H](C)O)C(C)C)[C@@H](C)O [Example 15, N-alpha-[(S)-4-Carboxy-4-(19-carboxynonadecanoylamino)butyryl]-[Pro17]-pramlintide (2-37)] ({C20 diacid-γGlu}-CNTATCATQRLANFLPHSSNNFGPILPPTNVGSNTY-NH2; disulfide 1-6) | 8

The next molecules have a lower EC50 than those just listed; values first:

Row | EC50 [nM] | SMILES
4 | 0.09 | CC[C@H](C)[C@H](NC(=O)[C@@H]1CCCN1C(=O)CNC(=O)[C@H](Cc1ccccc1)NC(=O)[C@H](CC(N)=O)NC(=O)[C@H](CC(N)=O)NC(=O)[C@H](CO)NC(=O)[C@H](CO)NC(=O)[C@H](Cc1c[nH]cn1)NC(=O)[C@H](Cc1c[nH]cn1)NC(=O)[C@H](CC(C)C)NC(=O)[C@H](Cc1ccccc1)NC(=O)[C@H](CC(N)=O)NC(=O)[C@H](C)NC(=O)[C@H](CC(C)C)NC(=O)[C@H](CCCNC(=N)N)NC(=O)[C@H](CCC(N)=O)NC(=O)[C@@H](NC(=O)[C@H](C)NC(=O)[C@@H]1CSSC[C@H](NC(=O)[C@H](CCCNC(=N)N)NC(=O)[C@H](Cc2c[nH]cn2)NC(=O)[C@H](Cc2c[nH]cn2)NC(=O)CC[C@H](NC(=O)CCCCCCCCCCCCCCCCCCC(=O)O)C(=O)O)C(=O)N[C@@H](CC(N)=O)C(=O)N[C@@H]([C@@H](C)O)C(=O)N[C@@H](C)C(=O)N[C@@H]([C@@H](C)O)C(=O)N1)[C@@H](C)O)C(=O)N[C@@H](CC(C)C)C(=O)N1CCC[C@H]1C(=O)N1CCC[C@H]1C(=O)N[C@H](C(=O)N[C@@H](CC(N)=O)C(=O)N[C@H](C(=O)NCC(=O)N[C@@H](CO)C(=O)N[C@@H](CC(N)=O)C(=O)N[C@H](C(=O)N[C@@H](Cc1ccc(O)cc1)C(N)=O)[C@@H](C)O)C(C)C)[C@@H](C)O [Example 71, N-alpha-[(S)-4-Carboxy-4-(19-carboxynonadecanoylamino)butyryl]-His-His-[Arg1,His17]-pramlintide] ({C20 diacid-γGlu}-HHRCNTATCATQRLANFLHHSSNNFGPILPPTNVGSNTY-NH2; disulfide 4-9)
5 | 0.06 | CC[C@H](C)[C@H](NC(=O)[C@@H]1CCCN1C(=O)CNC(=O)[C@H](Cc1ccccc1)NC(=O)[C@H](CC(N)=O)NC(=O)[C@H](CC(N)=O)NC(=O)[C@H](CO)NC(=O)[C@H](CO)NC(=O)[C@H](Cc1c[nH]cn1)NC(=O)[C@H](Cc1c[nH]cn1)NC(=O)[C@H](CC(C)C)NC(=O)[C@H](Cc1ccccc1)NC(=O)[C@H](CC(N)=O)NC(=O)[C@H](C)NC(=O)[C@H](CC(C)C)NC(=O)[C@H](CCCNC(=N)N)NC(=O)[C@H](CCC(N)=O)NC(=O)[C@@H](NC(=O)[C@H](C)NC(=O)[C@@H]1CSSC[C@H](NC(=O)CC[C@H](NC(=O)CCCCCCCCCCCCCCCCCCC(=O)O)C(=O)O)C(=O)N[C@@H](CC(N)=O)C(=O)N[C@@H]([C@@H](C)O)C(=O)N[C@@H](C)C(=O)N[C@@H]([C@@H](C)O)C(=O)N1)[C@@H](C)O)C(=O)N[C@@H](CC(C)C)C(=O)N1CCC[C@H]1C(=O)N1CCC[C@H]1C(=O)N[C@H](C(=O)N[C@@H](CC(=O)O)C(=O)N[C@H](C(=O)NCC(=O)N[C@@H](CO)C(=O)N[C@@H](CC(N)=O)C(=O)N[C@H](C(=O)N[C@@H](Cc1ccc(O)cc1)C(N)=O)[C@@H](C)O)C(C)C)[C@@H](C)O [Example 53, N-alpha-[(S)-4-Carboxy-4-(19-carboxynonadecanoylamino)butyryl]-[His17,Asp31]-pramlintide (2-37)] ({C20 diacid-γGlu}-CNTATCATQRLANFLHHSSNNFGPILPPTDVGSNTY-NH2; disulfide 1-6)
6 | 0.06 | CC[C@H](C)[C@H](NC(=O)[C@@H]1CCCN1C(=O)CNC(=O)[C@H](Cc1ccccc1)NC(=O)[C@H](CC(N)=O)NC(=O)[C@H](CCC(N)=O)NC(=O)[C@H](CO)NC(=O)[C@H](CO)NC(=O)[C@H](Cc1c[nH]cn1)NC(=O)[C@H](Cc1c[nH]cn1)NC(=O)[C@H](CC(C)C)NC(=O)[C@H](Cc1ccccc1)NC(=O)[C@H](CC(N)=O)NC(=O)[C@H](C)NC(=O)[C@H](CC(C)C)NC(=O)[C@H](CCCNC(=N)N)NC(=O)[C@H](CCC(N)=O)NC(=O)[C@@H](NC(=O)[C@H](C)NC(=O)[C@@H]1CSSC[C@H](NC(=O)[C@H](CCCNC(=N)N)NC(=O)[C@H](Cc2c[nH]cn2)NC(=O)[C@H](Cc2c[nH]cn2)NC(=O)COCCOCCNC(=O)CC[C@H](NC(=O)CCCCCCCCCCCCCCCCCCC(=O)O)C(=O)O)C(=O)N[C@@H](CC(N)=O)C(=O)N[C@@H]([C@@H](C)O)C(=O)N[C@@H](C)C(=O)N[C@@H]([C@@H](C)O)C(=O)N1)[C@@H](C)O)C(=O)N[C@@H](CC(C)C)C(=O)N1CCC[C@H]1C(=O)N1CCC[C@H]1C(=O)N[C@H](C(=O)N[C@@H](CC(N)=O)C(=O)N[C@H](C(=O)NCC(=O)N[C@@H](CO)C(=O)N[C@@H](CC(N)=O)C(=O)N[C@H](C(=O)N[C@@H](Cc1ccc(O)cc1)C(N)=O)[C@@H](C)O)C(C)C)[C@@H](C)O [Example 59, N-alpha-[2-(2-{2-[4-(S)-Carboxy-4-(19-carboxynonadecanoylamino)butyrylamino]ethoxy}ethoxy)acetyl]-His-His-[Arg1His17,Gln21]-pramlintide] ({C20 diacid-γGlu-AEEA}-HHRCNTATCATQRLANFLHHSSQNFGPILPPTNVGSNTY-NH2; disulfide 4-9)

Reference: patent US8895504B2, “Amylin derivatives” (priority 2008, dated 2014)
